In ChEMBL document CHEMBL3045547, “Synthesis, characterization and antimicrobial screening of hybrid molecules containing benzimidazole-pyrazole and pyridine nucleus” (2012):
In brackets after ≈: the same amount, converted by molar mass.

How the values were obtained:
Format in all cases: functional
Aspergillus niger = assay: Antimicrobial activity against Aspergillus niger MTCC 282 serial after 72 hr by broth dilution method; details: MTCC 282, 72 h
Pseudomonas aeruginosa = assay: Antimicrobial activity against Pseudomonas aeruginosa MTCC 1688 after 24 to 48 hr by serial broth dilution method
Escherichia coli = assay: Antimicrobial activity against Escherichia coli MTCC 443 after 24 to 48 hr by serial broth dilution method
Candida albicans = assay: Antimicrobial activity against Candida albicans MTCC 227 after 72 hr by serial broth dilution method; details: MTCC 227, 72 h
Streptococcus pyogenes = assay: Antimicrobial activity against Streptococcus pyogenes MTCC 442 after 24 to 48 hr by serial broth dilution method
Staphylococcus aureus = assay: Antimicrobial activity against Staphylococcus aureus MTCC 96 after 24 to 48 hr by serial broth dilution method
Aspergillus clavatus = assay: Antimicrobial activity against Aspergillus clavatus MTCC 1323 after 72 hr by serial broth dilution method; details: MTCC 1323, 72 h

SMILES	MIC (Aspergillus niger) [mg/L]	MIC (Pseudomonas aeruginosa) [mg/L]	MIC (Escherichia coli) [mg/L]	MIC (Candida albicans) [mg/L]	MIC (Streptococcus pyogenes) [mg/L]	MIC (Staphylococcus aureus) [mg/L]	MIC (Aspergillus clavatus) [mg/L]
O=C(c1ccncc1)N1N=C(c2nc3ccccc3[nH]2)CC1c1ccc(Cl)cc1 (stereo not given)	1000 (≈ 2490 µM)	500 (≈ 1240 µM)	500 (≈ 1240 µM)	1000 (≈ 2490 µM)	250 (≈ 622 µM)	250 (≈ 622 µM)	1000 (≈ 2490 µM)
O=C(c1ccncc1)N1N=C(c2nc3ccccc3[nH]2)CC1c1ccccc1O (stereo not given)	1000 (≈ 2610 µM)	100 (≈ 261 µM)	500 (≈ 1300 µM)	100 (≈ 261 µM)	100 (≈ 261 µM)	125 (≈ 326 µM)	100 (≈ 261 µM)
O=C(c1ccncc1)N1N=C(c2nc3ccccc3[nH]2)CC1c1ccc(Br)cc1 (stereo not given)	1000 (≈ 2240 µM)	250 (≈ 560 µM)	250 (≈ 560 µM)	1000 (≈ 2240 µM)	250 (≈ 560 µM)	250 (≈ 560 µM)	1000 (≈ 2240 µM)
Cc1ccc(C2CC(c3nc4ccccc4[nH]3)=NN2C(=O)c2ccncc2)cc1 (stereo not given)	1000 (≈ 2620 µM)	50 (≈ 131 µM)	25 (≈ 65.5 µM)	1000 (≈ 2620 µM)	250 (≈ 655 µM)	100 (≈ 262 µM)	1000 (≈ 2620 µM)
O=C(c1ccncc1)N1N=C(c2nc3ccccc3[nH]2)CC1c1ccccc1 (stereo not given)	200 (≈ 544 µM)	500 (≈ 1360 µM)	250 (≈ 680 µM)	250 (≈ 680 µM)	100 (≈ 272 µM)	250 (≈ 680 µM)	500 (≈ 1360 µM)
O=C(c1ccncc1)N1N=C(c2nc3ccccc3[nH]2)CC1c1ccc([N+](=O)[O-])cc1 (stereo not given)	200 (≈ 485 µM)	500 (≈ 1210 µM)	50 (≈ 121 µM)	500 (≈ 1210 µM)	500 (≈ 1210 µM)	500 (≈ 1210 µM)	100 (≈ 242 µM)
O=C(c1ccncc1)N1N=C(c2nc3ccccc3[nH]2)CC1c1ccc(O)cc1 (stereo not given)	1000 (≈ 2610 µM)	250 (≈ 652 µM)	25 (≈ 65.2 µM)	100 (≈ 261 µM)	250 (≈ 652 µM)	250 (≈ 652 µM)	1000 (≈ 2610 µM)
O=C(c1ccncc1)N1N=C(c2nc3ccccc3[nH]2)CC1c1ccc(F)cc1 (stereo not given)	200 (≈ 519 µM)	100 (≈ 259 µM)	500 (≈ 1300 µM)	500 (≈ 1300 µM)	100 (≈ 259 µM)	500 (≈ 1300 µM)	500 (≈ 1300 µM)
CC1(C)S[C@@H]2[C@H](NC(=O)[C@H](N)c3ccccc3)C(=O)N2[C@H]1C(=O)O [AMPICILLIN]		100 (≈ 286 µM)	100 (≈ 286 µM)		100 (≈ 286 µM)	250 (≈ 715 µM)	
CN(C)c1ccc(C2CC(c3nc4ccccc4[nH]3)=NN2C(=O)c2ccncc2)cc1 (stereo not given)	25 (≈ 60.9 µM)	100 (≈ 244 µM)	250 (≈ 609 µM)	1000 (≈ 2440 µM)	250 (≈ 609 µM)	250 (≈ 609 µM)	100 (≈ 244 µM)
O=C(c1ccncc1)N1N=C(c2nc3ccccc3[nH]2)CC1c1cccc([N+](=O)[O-])c1 (stereo not given)	200 (≈ 485 µM)	100 (≈ 242 µM)	100 (≈ 242 µM)	500 (≈ 1210 µM)	500 (≈ 1210 µM)	500 (≈ 1210 µM)	100 (≈ 242 µM)
O=C(c1ccncc1)N1N=C(c2nc3ccccc3[nH]2)CC1c1cccc(O)c1 (stereo not given)	100 (≈ 261 µM)	25 (≈ 65.2 µM)	100 (≈ 261 µM)	500 (≈ 1300 µM)	50 (≈ 130 µM)	100 (≈ 261 µM)	500 (≈ 1300 µM)
COc1cc(C2CC(c3nc4ccccc4[nH]3)=NN2C(=O)c2ccncc2)ccc1O (stereo not given)	100 (≈ 242 µM)	500 (≈ 1210 µM)	250 (≈ 605 µM)	500 (≈ 1210 µM)	100 (≈ 242 µM)	100 (≈ 242 µM)	200 (≈ 484 µM)
O=C(c1ccncc1)N1N=C(c2nc3ccccc3[nH]2)CC1c1ccccc1Cl (stereo not given)	1000 (≈ 2490 µM)	500 (≈ 1240 µM)	100 (≈ 249 µM)	500 (≈ 1240 µM)	500 (≈ 1240 µM)	250 (≈ 622 µM)	1000 (≈ 2490 µM)
COc1ccc(C2CC(c3nc4ccccc4[nH]3)=NN2C(=O)c2ccncc2)cc1 (stereo not given)	200 (≈ 503 µM)	50 (≈ 126 µM)	100 (≈ 252 µM)	500 (≈ 1260 µM)	200 (≈ 503 µM)	125 (≈ 315 µM)	500 (≈ 1260 µM)
COC1=CC(=O)C[C@@H](C)[C@]12Oc1c(Cl)c(OC)cc(OC)c1C2=O [GRISEOFULVIN]	100 (≈ 283 µM)			500 (≈ 1420 µM)			100 (≈ 283 µM)
